Test systems include UACC-257 melanoma; IGROV1 ovarian; 786-0 renal; SF-539 CNS; HCT-116 colon; HCC-2998 colon; OVCAR-3 ovarian; HS 578T breast; U251 CNS; PC-3 prostate; HCT-15 colon; SK-OV-3 ovarian.
Test in all cases: DTP human tumour cell line panel, 48 h

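Five concentrations, 48 hours, 96-well plates. The concentration for full growth arrest is given as TGI.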

The term TGI denotes the concentration at which net growth stops.

`CCOC(=O)NC(Nc1ccc(F)cc1)(C(=O)OCC)C(F)(F)F` (stereo not given): the TGI in the experiment with UACC-257 melanoma, with IGROV1 ovarian, with 786-0 renal, in the experiment on SF-539 CNS, in the experiment on HCT-116 colon and with HCC-2998 colon was above 100 µM in each case. In addition, the TGI in the experiment on OVCAR-3 ovarian, in the experiment on HS 578T breast, with U251 CNS, in the experiment with PC-3 prostate, in the experiment with HCT-15 colon and with SK-OV-3 ovarian was above 100 µM each time.
Consider `[B-][P+](CC[P+]1([B-])[C@@H](C)[C@@H](O)[C@H](O)[C@@H]1C)(c1ccccc1)c1ccccc1OC` (stereo not given in full), for which the concentration for total growth inhibition (TGI) stood at 20.3 µM in the experiment on UACC-257 melanoma; 31.3 µM in the experiment with IGROV1 ovarian; 60.8 µM in the experiment with 786-0 renal; 31.6 µM in the experiment on SF-539 CNS; 35.3 µM with HCT-116 colon; 31 µM in the experiment on OVCAR-3 ovarian. The concentration for total growth inhibition (TGI) in the experiment with HS 578T breast worked out at 22.6 µM; in the experiment with U251 CNS, 30.6 µM; with PC-3 prostate, 35.6 µM; in the experiment with HCT-15 colon, 33.3 µM; with SK-OV-3 ovarian, 37.6 µM.
Consider `C=C1C(=O)O[C@H]2C1C[C@@H](OC(C)=O)/C(C)=C/CC[C@@]1(C)O[C@H]21` (stereo not given in full), for which the TGI in the experiment on UACC-257 melanoma stood at 19.6 µM; in the experiment with IGROV1 ovarian, 21.2 µM; in the experiment with 786-0 renal, 23.9 µM; in the experiment with HCT-116 colon, 20.9 µM; in the experiment on HCC-2998 colon, 27.9 µM; with HS 578T breast, 86 µM. Besides, the concentration for total growth inhibition (TGI) in the experiment with U251 CNS was above 100 µM; in the experiment on PC-3 prostate, 31.3 µM; in the experiment on HCT-15 colon it was 22.9 µM; in the experiment on SK-OV-3 ovarian, 64 µM.
Consider `O=C1CC(CC(=O)c2ccc(Br)cc2)C(=O)/C1=C(/O)c1ccc(Br)cc1` (stereo not given), for which the TGI in the experiment on UACC-257 melanoma, with IGROV1 ovarian, in the experiment with 786-0 renal, with SF-539 CNS, with HCT-116 colon and in the experiment with HCC-2998 colon was above 100 µM each time. For the same compound, the total growth inhibition concentration (TGI) in the experiment with OVCAR-3 ovarian, in the experiment on HS 578T breast, in the experiment with U251 CNS, in the experiment on PC-3 prostate, with HCT-15 colon and in the experiment on SK-OV-3 ovarian was above 100 µM in each case.
As for `COc1ccc(-c2c3c(n(C4OC(CO)C(O)C(O)C4O)c(=S)c2C#N)CCCC3)cc1` (stereo not given), the TGI in the experiment with UACC-257 melanoma, in the experiment on IGROV1 ovarian, in the experiment with 786-0 renal, in the experiment with SF-539 CNS, in the experiment on HCT-116 colon and in the experiment with HCC-2998 colon was above 100 µM each time. For the same compound, the concentration for total growth inhibition (TGI) in the experiment with OVCAR-3 ovarian, in the experiment on HS 578T breast, in the experiment on PC-3 prostate, with HCT-15 colon and in the experiment with SK-OV-3 ovarian was above 100 µM each time.
Turning to `COc1ccccc1/C=C/C1=NN(c2cccc(S(=O)(=O)O)c2)C2(C1)C(Cl)C(=O)N2c1nc2ccccc2s1` (stereo not given), the concentration for total growth inhibition (TGI) was above 100 µM in the experiment with UACC-257 melanoma; above 100 µM in the experiment with IGROV1 ovarian; above 59.8 µM with 786-0 renal; above 100 µM with SF-539 CNS; above 100 µM in the experiment with HCT-116 colon; above 100 µM in the experiment with HCC-2998 colon. The TGI in the experiment on OVCAR-3 ovarian, with HS 578T breast, in the experiment on U251 CNS, with PC-3 prostate, in the experiment on HCT-15 colon and in the experiment with SK-OV-3 ovarian was above 100 µM in each case.
As for `O=C1NN(Cc2ccccc2)C(=O)N2CCC[C@@H]12`, the concentration for total growth inhibition (TGI) with UACC-257 melanoma, with IGROV1 ovarian, in the experiment on 786-0 renal, with SF-539 CNS, in the experiment on HCT-116 colon and with HCC-2998 colon was above 100 µM throughout. The TGI in the experiment with OVCAR-3 ovarian, with HS 578T breast, in the experiment on PC-3 prostate, with HCT-15 colon and in the experiment on SK-OV-3 ovarian was above 100 µM each time.
For the compound `CCCSc1ccc2[nH]c(N3C(=O)/C(=C/c4ccc(SC)cc4)N=C3c3ccccc3)cc2c1`, the TGI in the experiment with UACC-257 melanoma was above 50 µM; in the experiment with IGROV1 ovarian, above 50 µM; in the experiment on 786-0 renal it was above 50 µM; in the experiment with SF-539 CNS it was 48.8 µM; in the experiment on HCT-116 colon, above 50 µM; with HCC-2998 colon, above 50 µM. For the same compound, the TGI in the experiment with OVCAR-3 ovarian, in the experiment with HS 578T breast, with U251 CNS, with PC-3 prostate, in the experiment on HCT-15 colon and in the experiment on SK-OV-3 ovarian was above 50 µM each time.
As to `CC1=CC[C@@]2(C)CC[C@](O)(C(C)C)C2C(OC(=O)c2ccccc2)C1` (stereo not given in full), the TGI in the experiment with UACC-257 melanoma came to 35.1 µM; in the experiment with IGROV1 ovarian, 30.6 µM; in the experiment with 786-0 renal, 33.4 µM; with SF-539 CNS it was 37.4 µM; in the experiment with HCT-116 colon, 31.8 µM; in the experiment on HCC-2998 colon it was 25 µM. Besides, the total growth inhibition concentration (TGI) in the experiment with OVCAR-3 ovarian was 31.8 µM; with HS 578T breast, 47.9 µM; in the experiment on U251 CNS, 60 µM; in the experiment with PC-3 prostate it was 45.6 µM; in the experiment with HCT-15 colon, 34.2 µM; in the experiment with SK-OV-3 ovarian, 28.8 µM.
In the case of `Nc1nc(NCCCO)cc(=O)[nH]1`, the TGI in the experiment on UACC-257 melanoma, in the experiment on IGROV1 ovarian, in the experiment with 786-0 renal, in the experiment with HCT-116 colon, in the experiment with HCC-2998 colon and in the experiment on OVCAR-3 ovarian was above 100 µM throughout. Besides, the total growth inhibition concentration (TGI) with HS 578T breast, with U251 CNS, in the experiment with PC-3 prostate, with HCT-15 colon and in the experiment on SK-OV-3 ovarian was above 100 µM in each case.
For `NC1CCC(N(CC(=O)O)CC(=O)O)C(N(CC(=O)O)CC(=O)O)C1` (stereo not given), the total growth inhibition concentration (TGI) with IGROV1 ovarian, with SF-539 CNS, in the experiment on HCT-116 colon, in the experiment on HCC-2998 colon, with OVCAR-3 ovarian and with HS 578T breast was above 100 µM in each case. Also, the total growth inhibition concentration (TGI) in the experiment on U251 CNS, in the experiment on PC-3 prostate, in the experiment with HCT-15 colon and in the experiment on SK-OV-3 ovarian was above 100 µM throughout.
As for `O=C1O[C@H]2[C@H](OC(=O)c3cc(O)c(O)c(O)c3)[C@@H](OC(=O)c3cc(O)c(O)c4c3[C@@H]3C1=CC(=O)C(O)(O)C3(O)O4)[C@H](OC(=O)c1cc(O)c(O)c(O)c1)O[C@@H]2COC(=O)c1cc(O)c(O)c(O)c1` (stereo not given in full), the TGI in the experiment with UACC-257 melanoma, in the experiment with IGROV1 ovarian, with 786-0 renal, in the experiment on HCT-116 colon, in the experiment with HCC-2998 colon and with OVCAR-3 ovarian was above 100 µM in each case. In addition, the TGI in the experiment on HS 578T breast, in the experiment with U251 CNS, in the experiment on PC-3 prostate, with HCT-15 colon and in the experiment on SK-OV-3 ovarian was above 100 µM throughout.

Values taken from PubChem BioAssay (NCI).
